Reference: ChEMBL document CHEMBL5291721, “A preclinical secondary pharmacology resource illuminates target-adverse drug reaction associations of marketed drugs” (Nat Commun, 2023)
Where a SMILES comes first, the peptide text is derived from it.

Experiments:
[1] = target: Voltage-dependent N-type calcium channel subunit alpha-1B (Rattus norvegicus, UniProt Q02294); format: functional
[2] = target: Neurotensin receptor type 1 (Homo sapiens, UniProt P30989)
[3] = target: Sodium channel protein type 5 subunit alpha (Homo sapiens, UniProt Q14524); format: functional, cell-based
Chain of Sodium channel protein type 5 subunit alpha (Q14524 whole entry): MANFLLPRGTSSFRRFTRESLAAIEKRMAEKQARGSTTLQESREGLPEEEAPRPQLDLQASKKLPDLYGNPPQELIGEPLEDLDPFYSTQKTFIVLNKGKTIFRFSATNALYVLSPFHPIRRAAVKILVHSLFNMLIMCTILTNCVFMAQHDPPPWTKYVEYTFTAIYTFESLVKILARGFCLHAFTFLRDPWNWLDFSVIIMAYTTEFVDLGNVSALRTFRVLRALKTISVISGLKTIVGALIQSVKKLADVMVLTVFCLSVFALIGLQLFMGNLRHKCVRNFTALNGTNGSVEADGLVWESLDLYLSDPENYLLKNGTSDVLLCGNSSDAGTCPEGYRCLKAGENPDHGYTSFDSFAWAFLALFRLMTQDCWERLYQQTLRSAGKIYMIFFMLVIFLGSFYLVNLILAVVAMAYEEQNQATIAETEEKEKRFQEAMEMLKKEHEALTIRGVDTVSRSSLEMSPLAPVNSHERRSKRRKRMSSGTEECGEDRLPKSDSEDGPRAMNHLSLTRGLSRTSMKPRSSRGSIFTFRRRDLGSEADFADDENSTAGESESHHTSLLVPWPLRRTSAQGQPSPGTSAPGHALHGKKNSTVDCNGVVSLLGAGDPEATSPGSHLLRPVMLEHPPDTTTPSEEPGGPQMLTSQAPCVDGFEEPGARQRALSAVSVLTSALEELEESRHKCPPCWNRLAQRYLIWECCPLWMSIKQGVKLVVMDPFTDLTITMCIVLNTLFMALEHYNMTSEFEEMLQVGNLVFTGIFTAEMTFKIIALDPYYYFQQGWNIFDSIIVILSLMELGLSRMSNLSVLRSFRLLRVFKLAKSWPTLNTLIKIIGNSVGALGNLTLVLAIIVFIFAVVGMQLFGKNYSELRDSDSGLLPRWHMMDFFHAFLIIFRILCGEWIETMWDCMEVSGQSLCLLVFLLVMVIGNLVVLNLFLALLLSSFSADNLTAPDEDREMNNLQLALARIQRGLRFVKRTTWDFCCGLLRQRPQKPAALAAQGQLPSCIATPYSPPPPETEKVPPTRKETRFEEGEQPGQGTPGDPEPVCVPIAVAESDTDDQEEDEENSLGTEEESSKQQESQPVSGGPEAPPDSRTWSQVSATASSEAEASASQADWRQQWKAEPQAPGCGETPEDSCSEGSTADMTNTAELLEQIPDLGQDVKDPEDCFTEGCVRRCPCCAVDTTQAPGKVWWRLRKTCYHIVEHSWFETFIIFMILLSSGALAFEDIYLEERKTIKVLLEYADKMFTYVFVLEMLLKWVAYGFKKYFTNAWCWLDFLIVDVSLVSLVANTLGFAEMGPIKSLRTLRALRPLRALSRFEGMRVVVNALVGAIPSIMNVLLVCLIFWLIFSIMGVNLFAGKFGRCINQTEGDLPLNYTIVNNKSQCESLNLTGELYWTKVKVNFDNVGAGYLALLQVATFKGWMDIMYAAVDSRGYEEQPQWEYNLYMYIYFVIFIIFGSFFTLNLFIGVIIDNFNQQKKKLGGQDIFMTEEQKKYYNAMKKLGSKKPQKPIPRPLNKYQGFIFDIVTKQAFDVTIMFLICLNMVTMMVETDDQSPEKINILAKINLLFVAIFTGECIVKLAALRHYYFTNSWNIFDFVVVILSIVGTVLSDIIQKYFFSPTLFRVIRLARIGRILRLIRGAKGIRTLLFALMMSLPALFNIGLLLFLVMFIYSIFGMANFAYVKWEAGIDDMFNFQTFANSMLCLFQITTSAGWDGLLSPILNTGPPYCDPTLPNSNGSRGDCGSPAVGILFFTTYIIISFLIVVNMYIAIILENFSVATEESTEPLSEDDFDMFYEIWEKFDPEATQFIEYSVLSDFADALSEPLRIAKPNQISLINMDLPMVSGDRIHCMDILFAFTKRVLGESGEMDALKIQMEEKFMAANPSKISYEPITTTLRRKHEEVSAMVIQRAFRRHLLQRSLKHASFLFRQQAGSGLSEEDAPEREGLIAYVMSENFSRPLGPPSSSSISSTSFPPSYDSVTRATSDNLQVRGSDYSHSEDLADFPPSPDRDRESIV

[4] = target: T1, Androgen receptor (Rattus norvegicus, UniProt P15207); format: functional
T1 sequence (P15207 whole entry): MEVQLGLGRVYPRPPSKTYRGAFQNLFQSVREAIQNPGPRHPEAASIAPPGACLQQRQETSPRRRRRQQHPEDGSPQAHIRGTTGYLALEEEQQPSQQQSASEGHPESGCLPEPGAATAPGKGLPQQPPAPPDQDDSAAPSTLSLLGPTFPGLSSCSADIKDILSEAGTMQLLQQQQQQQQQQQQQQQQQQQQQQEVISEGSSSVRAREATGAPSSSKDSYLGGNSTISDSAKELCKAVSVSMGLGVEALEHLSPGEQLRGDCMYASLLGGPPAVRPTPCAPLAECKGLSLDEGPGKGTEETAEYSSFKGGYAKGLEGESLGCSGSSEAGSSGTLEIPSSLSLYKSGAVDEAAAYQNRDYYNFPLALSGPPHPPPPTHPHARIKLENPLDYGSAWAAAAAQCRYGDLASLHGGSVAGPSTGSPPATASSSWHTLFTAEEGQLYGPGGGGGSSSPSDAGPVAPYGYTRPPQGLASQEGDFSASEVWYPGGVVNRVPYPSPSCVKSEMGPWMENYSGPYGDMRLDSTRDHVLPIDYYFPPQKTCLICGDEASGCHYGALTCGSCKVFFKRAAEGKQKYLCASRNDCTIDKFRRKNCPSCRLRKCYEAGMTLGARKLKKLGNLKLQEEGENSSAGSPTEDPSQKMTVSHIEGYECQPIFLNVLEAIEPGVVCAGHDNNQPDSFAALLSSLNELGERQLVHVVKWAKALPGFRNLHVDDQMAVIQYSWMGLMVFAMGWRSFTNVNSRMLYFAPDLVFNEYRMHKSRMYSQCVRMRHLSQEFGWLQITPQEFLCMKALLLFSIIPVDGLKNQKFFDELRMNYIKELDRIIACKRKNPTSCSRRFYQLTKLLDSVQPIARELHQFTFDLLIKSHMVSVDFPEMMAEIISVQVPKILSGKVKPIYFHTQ

[5] = target: T2, Histamine H1 receptor (Homo sapiens, UniProt P35367); format: functional, cell-based
T2 sequence (P35367 whole entry): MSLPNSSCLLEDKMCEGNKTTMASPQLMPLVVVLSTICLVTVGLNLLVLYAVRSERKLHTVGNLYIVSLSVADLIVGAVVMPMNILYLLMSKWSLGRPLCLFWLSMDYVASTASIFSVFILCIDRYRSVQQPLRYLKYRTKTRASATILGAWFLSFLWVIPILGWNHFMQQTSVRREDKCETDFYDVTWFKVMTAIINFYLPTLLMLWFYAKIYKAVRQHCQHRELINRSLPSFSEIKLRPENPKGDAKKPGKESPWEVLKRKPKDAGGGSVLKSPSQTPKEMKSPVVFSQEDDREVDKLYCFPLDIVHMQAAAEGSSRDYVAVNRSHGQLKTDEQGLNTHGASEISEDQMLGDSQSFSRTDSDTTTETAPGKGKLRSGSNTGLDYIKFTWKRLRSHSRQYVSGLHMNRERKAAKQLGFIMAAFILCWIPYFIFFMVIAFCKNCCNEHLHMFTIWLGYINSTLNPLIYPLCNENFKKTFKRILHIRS

[6] = target: T2, Histamine H1 receptor; format: functional, cell-based; remark: listed apart in the source
[7] = target: T3, D(4) dopamine receptor (Homo sapiens, UniProt P21917)
T3 sequence (P21917 whole entry): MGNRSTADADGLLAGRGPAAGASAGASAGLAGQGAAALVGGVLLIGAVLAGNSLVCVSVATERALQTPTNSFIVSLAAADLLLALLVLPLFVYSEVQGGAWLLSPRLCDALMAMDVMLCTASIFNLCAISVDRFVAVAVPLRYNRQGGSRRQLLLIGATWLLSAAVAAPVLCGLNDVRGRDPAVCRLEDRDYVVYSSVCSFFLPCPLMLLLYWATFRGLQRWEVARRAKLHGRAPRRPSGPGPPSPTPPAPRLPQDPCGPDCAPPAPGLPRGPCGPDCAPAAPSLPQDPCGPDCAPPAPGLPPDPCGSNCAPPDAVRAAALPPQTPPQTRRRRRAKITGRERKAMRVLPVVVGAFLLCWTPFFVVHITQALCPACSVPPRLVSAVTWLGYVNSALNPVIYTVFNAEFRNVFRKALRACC

[8] = target: Substance-P receptor (Homo sapiens, UniProt P25103)
[9] = target: T4, Peroxisome proliferator-activated receptor gamma (Homo sapiens, UniProt P37231); format: functional
T4 sequence (P37231 whole entry): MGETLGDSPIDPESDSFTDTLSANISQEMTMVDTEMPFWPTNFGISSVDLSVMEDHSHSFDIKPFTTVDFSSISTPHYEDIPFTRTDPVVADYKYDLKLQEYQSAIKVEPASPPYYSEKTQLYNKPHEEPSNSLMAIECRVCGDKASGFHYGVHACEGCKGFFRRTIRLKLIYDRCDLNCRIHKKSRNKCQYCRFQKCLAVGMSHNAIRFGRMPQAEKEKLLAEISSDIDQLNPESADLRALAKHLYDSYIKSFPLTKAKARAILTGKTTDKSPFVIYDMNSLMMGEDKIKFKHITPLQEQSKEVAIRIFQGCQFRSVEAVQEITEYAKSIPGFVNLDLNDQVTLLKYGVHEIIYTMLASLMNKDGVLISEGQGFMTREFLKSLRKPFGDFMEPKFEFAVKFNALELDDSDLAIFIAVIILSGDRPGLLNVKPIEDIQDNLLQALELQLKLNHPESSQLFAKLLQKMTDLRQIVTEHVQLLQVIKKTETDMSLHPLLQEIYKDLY

[10] = target: T4, Peroxisome proliferator-activated receptor gamma; format: functional; remark: listed apart in the source
[11] = target: T5, Alpha-1A adrenergic receptor (Homo sapiens, UniProt P35348)
T5 sequence (P35348 whole entry): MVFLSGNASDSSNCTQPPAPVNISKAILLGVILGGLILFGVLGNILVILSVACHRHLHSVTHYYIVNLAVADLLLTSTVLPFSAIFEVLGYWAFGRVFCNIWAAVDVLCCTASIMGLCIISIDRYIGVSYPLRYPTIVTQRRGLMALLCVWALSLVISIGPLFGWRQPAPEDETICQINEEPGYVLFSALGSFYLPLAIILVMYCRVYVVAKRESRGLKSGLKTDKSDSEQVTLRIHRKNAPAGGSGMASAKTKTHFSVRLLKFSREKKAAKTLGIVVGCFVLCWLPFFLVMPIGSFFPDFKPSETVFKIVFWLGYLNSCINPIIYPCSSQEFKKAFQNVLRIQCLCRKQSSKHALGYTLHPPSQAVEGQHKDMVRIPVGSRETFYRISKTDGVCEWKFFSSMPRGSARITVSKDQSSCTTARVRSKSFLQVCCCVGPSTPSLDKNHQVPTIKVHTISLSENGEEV

[12] = target: 5-hydroxytryptamine receptor 2A (Homo sapiens, UniProt P28223)
Further: assay procedure not described here.

Chain of Voltage-dependent N-type calcium channel subunit alpha-1B (Q02294 whole entry): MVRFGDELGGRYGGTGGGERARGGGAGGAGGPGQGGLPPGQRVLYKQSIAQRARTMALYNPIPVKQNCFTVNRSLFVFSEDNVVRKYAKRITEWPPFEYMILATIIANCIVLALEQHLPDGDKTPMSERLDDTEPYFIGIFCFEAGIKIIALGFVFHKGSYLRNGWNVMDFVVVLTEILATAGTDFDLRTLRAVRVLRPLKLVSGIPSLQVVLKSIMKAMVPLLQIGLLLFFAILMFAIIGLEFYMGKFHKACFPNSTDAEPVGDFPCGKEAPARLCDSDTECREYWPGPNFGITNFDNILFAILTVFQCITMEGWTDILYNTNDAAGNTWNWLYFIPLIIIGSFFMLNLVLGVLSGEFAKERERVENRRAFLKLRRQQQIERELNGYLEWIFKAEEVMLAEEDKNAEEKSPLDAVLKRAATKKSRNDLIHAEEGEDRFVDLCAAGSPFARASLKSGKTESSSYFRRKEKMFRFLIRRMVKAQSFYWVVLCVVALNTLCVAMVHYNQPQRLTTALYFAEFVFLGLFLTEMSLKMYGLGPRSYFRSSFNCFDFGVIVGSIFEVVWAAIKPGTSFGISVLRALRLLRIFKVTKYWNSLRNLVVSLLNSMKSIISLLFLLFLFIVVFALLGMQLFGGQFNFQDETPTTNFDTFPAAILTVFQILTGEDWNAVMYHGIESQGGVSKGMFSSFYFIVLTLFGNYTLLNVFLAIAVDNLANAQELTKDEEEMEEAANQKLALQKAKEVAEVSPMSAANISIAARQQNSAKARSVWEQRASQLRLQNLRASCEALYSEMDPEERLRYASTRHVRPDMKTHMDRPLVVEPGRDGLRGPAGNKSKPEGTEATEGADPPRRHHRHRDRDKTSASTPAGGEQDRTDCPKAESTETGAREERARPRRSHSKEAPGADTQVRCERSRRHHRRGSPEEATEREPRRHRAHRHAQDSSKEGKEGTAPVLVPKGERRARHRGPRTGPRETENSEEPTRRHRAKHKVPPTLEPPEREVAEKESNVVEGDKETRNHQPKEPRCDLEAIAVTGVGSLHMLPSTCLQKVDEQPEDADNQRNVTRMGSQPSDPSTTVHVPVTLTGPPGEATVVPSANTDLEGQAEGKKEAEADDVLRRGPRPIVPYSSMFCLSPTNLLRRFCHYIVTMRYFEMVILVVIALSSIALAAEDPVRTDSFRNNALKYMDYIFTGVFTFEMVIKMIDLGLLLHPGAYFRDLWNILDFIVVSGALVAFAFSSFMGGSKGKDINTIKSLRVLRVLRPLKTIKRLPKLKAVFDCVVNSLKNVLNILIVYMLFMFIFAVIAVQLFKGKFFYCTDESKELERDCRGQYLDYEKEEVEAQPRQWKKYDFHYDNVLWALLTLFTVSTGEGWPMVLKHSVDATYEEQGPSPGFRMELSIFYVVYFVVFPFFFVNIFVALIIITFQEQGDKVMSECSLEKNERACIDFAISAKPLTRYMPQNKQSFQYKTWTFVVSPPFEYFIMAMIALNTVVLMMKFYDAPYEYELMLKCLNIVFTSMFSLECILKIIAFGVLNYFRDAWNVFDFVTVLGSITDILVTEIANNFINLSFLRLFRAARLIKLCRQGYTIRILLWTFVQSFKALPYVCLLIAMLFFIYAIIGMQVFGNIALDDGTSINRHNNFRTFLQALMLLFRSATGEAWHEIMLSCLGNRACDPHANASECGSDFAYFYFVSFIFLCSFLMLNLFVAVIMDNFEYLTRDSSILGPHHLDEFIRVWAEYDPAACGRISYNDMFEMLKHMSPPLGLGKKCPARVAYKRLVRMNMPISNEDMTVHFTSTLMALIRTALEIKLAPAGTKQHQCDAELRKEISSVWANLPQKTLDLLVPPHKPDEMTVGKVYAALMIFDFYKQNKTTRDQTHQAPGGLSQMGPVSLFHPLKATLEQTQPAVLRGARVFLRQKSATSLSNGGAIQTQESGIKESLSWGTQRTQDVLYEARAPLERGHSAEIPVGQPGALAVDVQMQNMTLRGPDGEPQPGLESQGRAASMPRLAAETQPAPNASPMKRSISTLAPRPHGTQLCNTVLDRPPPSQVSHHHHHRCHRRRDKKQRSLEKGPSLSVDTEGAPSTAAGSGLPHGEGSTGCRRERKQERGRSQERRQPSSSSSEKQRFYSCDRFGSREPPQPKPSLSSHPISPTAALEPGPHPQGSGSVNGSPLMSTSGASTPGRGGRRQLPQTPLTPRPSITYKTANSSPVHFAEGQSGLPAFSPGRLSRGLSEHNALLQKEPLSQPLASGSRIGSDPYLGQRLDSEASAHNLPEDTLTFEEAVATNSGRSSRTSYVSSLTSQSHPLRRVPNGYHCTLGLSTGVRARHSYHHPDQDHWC

Question: Which AC50 [1] does the source give for `CC1=C(CC(=O)O)c2cc(F)ccc2/C1=C\c1ccc([S+](C)[O-])cc1` (stereo not given) here?
Answer: > 10 µM

Question: And the AC50 [2]?
Answer: > 30 µM

Question: How did the AC50 [3] turn out when `O=C(O)c1ccc2nc(-c3cc(Cl)cc(Cl)c3)oc2c1` was run?
Answer: > 30 µM

Question: And the AC50 [4]?
Answer: > 30 µM

Question: Which AC50 [4] does the source give for `NS(=O)(=O)c1ccc(N2CCCCS2(=O)=O)cc1` here?
Answer: > 30 µM

Question: And the AC50 [5]?
Answer: > 30 µM

Question: And the AC50 [6]?
Answer: > 30 µM

Question: `C[C@H](N)C(=O)N[C@@H](CCC(N)=O)C(=O)O` [ALANYL GLUTAMINE] (H-Ala-Gln-OH) was tested. Which AC50 [4] did it give?
Answer: > 30 µM

Question: What does the source list for `Cc1nnc2n1-c1ccc(Cl)cc1C(c1ccccc1)=NC2` [ALPRAZOLAM]?
Answer: AC50 [7]: > 10 µM; AC50 [1]: > 10 µM; AC50 [2]: > 30 µM; AC50 [8]: > 10 µM

Question: `COc1ccc(-n2nc(C(N)=O)c3c2C(=O)N(c2ccc(N4CCCCC4=O)cc2)CC3)cc1` [APIXABAN] was tested. Which AC50 [9] did it give?
Answer: > 30 µM

Question: And the AC50 [3]?
Answer: > 50 µM

Question: And the AC50 [4]?
Answer: > 30 µM

Question: What about the AC50 [10] of the same molecule?
Answer: > 30 µM

Question: With `CCN(CC)CCCN(c1ccccc1)C1Cc2ccccc2C1` [APRINDINE] as the molecule, how does the AC50 [9] read?
Answer: > 30 µM

Question: What about the AC50 [5] of the same molecule?
Answer: 8 µM

Question: What about the AC50 [10] of the same molecule?
Answer: > 30 µM

Question: What about the AC50 [6] of the same molecule?
Answer: > 30 µM

Question: `CC(NC(C)(C)C)C(=O)c1cccc(Cl)c1` (stereo not given) [BUPROPION] was tested. Which AC50 [7] did it give?
Answer: > 10 µM

Question: What about the AC50 [3] of the same molecule?
Answer: > 30 µM

Question: What about the AC50 [1] of the same molecule?
Answer: > 10 µM

Question: What about the AC50 [2] of the same molecule?
Answer: > 30 µM

Question: And the AC50 [8]?
Answer: > 10 µM

Question: And the AC50 [11]?
Answer: > 10 µM

Question: With `CC(=O)OCC1=C(C(=O)O)N2C(=O)[C@@H](NC(=O)Cc3cccs3)[C@H]2SC1` [CEPHALOTHIN] as the molecule, how does the AC50 [9] read?
Answer: > 30 µM

Question: And the AC50 [10]?
Answer: > 30 µM

Question: How did the AC50 [9] turn out when `CC1=C(C(=O)O)N2C(=O)[C@@H](NC(=O)[C@H](N)C3=CCC=CC3)[C@H]2SC1` [CEPHRADINE] was run?
Answer: > 30 µM

Question: What about the AC50 [10] of the same molecule?
Answer: > 30 µM

Question: With `COc1ccc(C(Cl)=C(c2ccc(OC)cc2)c2ccc(OC)cc2)cc1` [CHLOROTRIANISENE] as the molecule, how does the AC50 [5] read?
Answer: > 30 µM

Question: What about the AC50 [6] of the same molecule?
Answer: > 30 µM

Question: With `Oc1cc(O)c2c(c1)O[C@H](c1ccc(O)c(O)c1)[C@@H](O)C2` [CIANIDANOL] as the molecule, how does the AC50 [12] read?
Answer: > 10 µM

Question: And the AC50 [5]?
Answer: > 30 µM

Question: What about the AC50 [1] of the same molecule?
Answer: > 10 µM

Question: And the AC50 [2]?
Answer: > 30 µM

Question: What about the AC50 [6] of the same molecule?
Answer: > 30 µM

Question: Which AC50 [4] does the source give for `CCCO[C@H]1[C@@H]([C@@H](COCc2ccc(Cl)cc2)OCc2ccc(Cl)cc2)OC(OCC)[C@@H]1O` (stereo not given in full) [CLOBENOSIDE] here?
Answer: > 30 µM

Question: Which AC50 [7] does the source give for `O=C1CN=C(c2ccccc2Cl)c2cc([N+](=O)[O-])ccc2N1` [CLONAZEPAM] here?
Answer: > 10 µM

Question: What about the AC50 [1] of the same molecule?
Answer: > 10 µM

Question: And the AC50 [2]?
Answer: > 30 µM

Question: What about the AC50 [8] of the same molecule?
Answer: > 10 µM

Question: And the AC50 [11]?
Answer: > 10 µM

Question: With `C=C(c1ccccc1OCc1cccc(Cl)c1)n1ccnc1` [CROCONAZOLE] as the molecule, how does the AC50 [12] read?
Answer: 1.11 µM

Question: Which AC50 [9] does the source give for `CCCCCCOC(=O)NC(=N)c1ccc(NCc2nc3cc(C(=O)N(CCC(=O)OCC)c4ccccn4)ccc3n2C)cc1` [DABIGATRAN ETEXILATE] here?
Answer: > 30 µM

Question: What about the AC50 [3] of the same molecule?
Answer: 3 µM

Question: What about the AC50 [10] of the same molecule?
Answer: > 30 µM

Question: How did the AC50 [4] turn out when `CC(=O)Oc1cccc2c1C(=O)c1c(OC(C)=O)cc(C(=O)O)cc1C2=O` [DIACEREIN] was run?
Answer: > 30 µM

Question: With `CCN(CC)C(C)C(=O)c1ccccc1` (stereo not given) [DIETHYLPROPION] as the molecule, how does the AC50 [1] read?
Answer: > 10 µM

Question: And the AC50 [2]?
Answer: > 30 µM
